Test results from patent US20110054033A1, “METHODS OF USING ABSCISIC ACID FOR AMELIORATING HYPERTENSION AND VASCULAR INFLAMMATION” (Virginia Tech Intellectual Properties, Inc., priority 2009, published 2011).

Columns and labels:
[1] = test system: vascular smooth muscle cells and primary human monocytes; conditions: stimulated in culture for 6 hours, Magnone et al., 2009; cited from earlier work
[2] = Body weight and fasted plasma metabolic parameters of ApoE-deficient mice fed high-fat diet with or without ABA; format: in vivo
Description: Five-week old ApoE −/− mice (n=40) were housed at the animal facilities at Virginia Polytechnic Institute and State University in a room maintained at 75° F., with a 12:12 h light-dark cycle starting from 6:00 AM. All experimental procedures were approved by the Institutional Animal Care and Use Committee of Virginia Polytechnic Institute and State University and met or exceeded requirements of the Public Health Service/National Institutes of Health and the Animal Welfare Act. Mice were fed a high saturated fat (AIN-93G-based) diet containing 19.6% fat and 0.2% total cholesterol and obtaining 40.1% of Kcal from fat (4.4 Kcal/g) with or without 100 mg/kg of a racemic ABA mixture (Guri et al., J. Nutr. Biochem. 19:216-28, 2008). Systolic blood pressure was assessed on days 0, 28, 56, and 72. On day 84, fasted mice (12 h) were sacrificed by carbon dioxide asphyxiation and blood was withdrawn through cardiac puncture. Glucose concentrations of whole blood were assessed with an Accu-Chek® Glucometer (Roche, Indianapolis, Ind.) and plasma insulin was measured through insulin ELISA (Millipore, Billerica, Mass.). Aortas were collected for analysis of immune cell infiltration, histological evaluation of atherosclerotic lesions, and gene expression analyses.
(§1) Plasma cholesterol and triglyceride levels were measured using kits from Raichem (San Diego, Calif.) adapted for microtiter plate assays. Plasma free fatty acids were measured using the NEFA-HR(2) kit from Wako. Fast performance liquid chromatography (FPLC) separation of plasma lipoproteins was performed on a Superose 6 column using buffer containing 0.15M NaCl, 0.01M Na2HPO4 and 1 mM EDTA at a flow rate of 0.5 ml/min. Forty 0.5 ml fractions were collected and cholesterol was measured in fractions 10-40. Fractions 15-20 contain VLDL, fractions 21-27 contain LDL and fractions 28-34 contain HDL.

[3] = test system: MCP-1; test: MCP-1 concentrations in plasma by ELISA; format: in vivo, mice; conditions: P=0.10
Description: (§2) FIG. 6 are graphs showing that ABA decreases immune cell infiltration in aortas of ApoE−/− mice and reduces pro-inflammatory gene expression. ApoE −/− mice were fed high fat diets created with or without 100 mg/kg diet racemic abscisic acid (ABA). (A) Infiltration of F4/80^+CD11b^+ macrophages and CD4^+ T-cells into the aorta were assessed with flow cytometry. Gene expression in the aorta of pro-inflammatory markers (B) vascular cell adhesion molecule 1 (VCAM-1), (C) monocyte chemoattractant protein 1 (MCP-1), (D) E-selectin, (F) peroxisome proliferator-activated receptor γ (PPAR γ), and (G) CD36 were measured as a ratio to the housekeeping gene β-actin. (H) MCP-1 protein concentrations (pg/mL) were measured by ELISA. Data were analyzed as a completely randomized design.
A Ready-set-go MCP-1 ELISA (ebioscience) was used to quantify plasma MCP-1 according to the manufacturer's instructions.

[4] = FPLC separation of plasma lipoproteins; format: in vivo; conditions: ApoE-deficient mice, FIG. 2
Description: FIG. 2 is a graph showing fast performance liquid chromatography (FPLC) separation of plasma lipoproteins performed on a Superose 6 column using buffer containing 0.15M NaCl, 0.01M Na2HPO4 and 1 mM EDTA at a flow rate of 0.5 ml/min. Forty 0.5 ml fractions were collected and cholesterol was measured in fractions 10-40. Fractions 15-20 contain VLDL, fractions 21-27 contain LDL and fractions 28-34 contain HDL.
as §1

[5] = test system: E-selectin; test: Aortic gene expression by real-time RT-PCR: E-selectin; format: in vivo, mice; conditions: P=0.20
Description: as §2
(§3) Total RNA was isolated from aortas using the RNA isolation Minikit (Qiagen) according to the manufacturer's instructions. […] Each gene amplicon was purified with the MiniElute PCR Purification Kit (Qiagen) and quantitated on an agarose gel by using a DNA mass ladder (Promega). […]
(§4) Complementary DNA (cDNA) concentrations for genes of interest were examined by real-time quantitative PCR using an iCycler IQ System and the iQ SYBR green supermix (Bio-Rad). […] Results are presented as a starting quantity of target cDNA (picograms) per microgram of total RNA. […]

[6] = test system: peroxisome proliferator-activated receptor γ (PPAR γ); test: Aortic gene expression by real-time RT-PCR: PPAR γ and responsive genes; format: in vivo, mice; conditions: day 84
Description: as §2, §3, §4

[7] = ApoE-deficient mice, high-fat diet, 84 days
[8] = fasted plasma, day 84, ABA 100 mg/kg diet, least square mean ± standard error
[9] = fasted plasma, day 84, ABA 100 mg/kg diet, least square mean ± standard error, * P<0.05 vs control

Question: What does the source list for `CC1=CC(=O)CC(C)(C)C1(O)/C=C/C(C)=C\C(=O)O` (racemic) [ABA, abscisic acid]?
Answer: MCP-1 [1]: increases; MMP-9 [1]: increases; Body Weight ([2]; ApoE-deficient mice, high-fat diet with ABA 100 mg/kg, day 84, least square mean ± standard error): 30.8 ± 0.63 g; Effect on body weights vs control diet [2, 7]: no significant effect; Effect on insulin vs control diet [2, 7]: no significant effect; Effect on plasma glucose vs control diet [2, 7]: no significant effect; Effect on plasma non-esterified fatty acid concentration vs control diet [2, 7]: significantly raise; Effect on plasma triglyceride (TG) concentration vs control diet [2, 7]: significantly raise; Effect on total cholesterol levels vs control diet [2, 7]: no significant effect; Glucose ([2]; fasted (12 h), day 84, ABA 100 mg/kg diet, least square mean ± standard error): 194.6 ± 11.9 mg/dL; Cholesterol [2, 8]: 339.0 ± 25.1 mg/dL; Insulin [2, 8]: 0.432 ± 0.05 ng/mL; NEFAs (non-esterified fatty acids) [2, 9]: 2.05 ± 0.17* mequiv./mL; TGs (triglycerides) [2, 9]: 136.1 ± 12.3* mg/dL; HOMA-IR (homeostasis model assessment-insulin resistance) ([2]; fasted, day 84, ABA 100 mg/kg diet, least square mean ± standard error): 4.93 ± 0.76; Plasma MCP-1 concentrations vs control [3]: decreased; FPLC lipoprotein cholesterol profile vs control diet [4]: slight shift in the profiles to lower VLDL and higher LDL and HDL; E-selectin mRNA expression in the aortic roots vs control [5]: reduced, though not to statistical significance; Expression of PPAR γ or its responsive genes in the aorta vs control [6]: no differences
